Calls of active or inactive are those of the source.
Legend:
[1] = Luminescence Cell-Based Dose Response HTS to Identify Inhibitors of 5'UTR Stem-Loop Driven Prion Protein mRNA Translation in H4 Neuroglioblastoma Cells. [Related pubchem assays: 1827 (Project Summary), 1813 (Primary HTS)]; type: functional
[2] = inhibitors of SNCA 5'UTR-driven reporter translation, confirmation, H4 neuroglioma cells, luminescence (AID 1988); type: functional, cell-based
Vero [3] = experiment: cells; type: functional; conditions: Chlorocebus sabaeus
[4] = inhibitors of firefly luciferase expression or activity, dose response, H4 neuroglioma cells, luminescence (AID 1990); type: functional, cell-based
Vero [5] = experiment: cells; type: functional, cell-based; conditions: Chlorocebus sabaeus
[6] = HEp-2 cell cytotoxicity, dose response, cytotoxicity control for RSV inhibitor project, HTS (AID 2410); type: functional; conditions: human respiratory syncytial virus
HeLa = experiment: HeLa cell cytotoxicity, dose response, cytotoxicity control for MITF activator project, CellTiter-Glo luminescence, cherry-pick samples (AID 540259); type: functional, cell-based; conditions: Homo sapiens
A-375 [7] = experiment: A375 melanoma cell viability reduction, dose response, counter-screen for MITF modulator project, cherry-pick samples, set 2 (AID 540335); type: functional, cell-based; conditions: Homo sapiens
A-375 [8] = experiment: MITF: Counter assay: A375 proliferation Measured in Cell-Based System Using Plate Reader - 2084-03_Inhibitor_Dose_DryPowder_Activity. [Related pubchem assays (depositor defined):AID488944]; type: functional; conditions: Homo sapiens
HEK293 = experiment: cells; type: functional, cell-based; conditions: Homo sapiens
[9] = molecular target: T1, Nuclear receptor subfamily 0 group B member 1 (Homo sapiens, UniProt P51843); experiment: Luminescence-based cell-based high throughput dose response assay for inhibitors of the orphan nuclear receptor subfamily 0, group B, member 1 (DAX1; NR0B1). [Related pubchem assays (depositor defined):AID504766, AID504790]; type: functional
T1 sequence (P51843 whole entry): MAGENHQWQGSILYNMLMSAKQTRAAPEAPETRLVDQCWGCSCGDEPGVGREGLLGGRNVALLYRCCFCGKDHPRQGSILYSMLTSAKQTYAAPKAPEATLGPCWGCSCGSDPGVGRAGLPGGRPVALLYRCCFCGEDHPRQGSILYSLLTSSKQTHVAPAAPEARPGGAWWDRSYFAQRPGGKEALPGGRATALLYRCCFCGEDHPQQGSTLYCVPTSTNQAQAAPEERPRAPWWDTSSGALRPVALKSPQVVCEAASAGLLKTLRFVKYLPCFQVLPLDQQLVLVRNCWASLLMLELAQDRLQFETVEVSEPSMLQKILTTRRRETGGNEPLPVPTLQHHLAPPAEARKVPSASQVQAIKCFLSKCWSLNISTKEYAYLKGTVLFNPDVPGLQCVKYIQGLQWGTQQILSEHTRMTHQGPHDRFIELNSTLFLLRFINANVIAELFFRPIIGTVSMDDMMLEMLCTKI

[10] = Luminescence Cell-Based Dose Response to Identify Activators of 5'UTR Stem-Loop Driven Prion Protein mRNA Translation in H4-C Neuroglioblastoma Cells. [Related pubchem assays: 1829 (Project Summary), 1814 (Primary HTS)]; type: functional
H4 = experiment: Luminescence Cell-Based Dose Response HTS to Identify Activators of 5'UTR Stem-Loop Driven Prion Protein mRNA Translation in H4 Neuroglioblastoma Cells. [Related pubchem assays: 1829 (Project Summary), 1814 (Primary HTS)]; type: functional; conditions: Homo sapiens
[11] = Luminescence Cell-Based Dose Response HTS to Identify Activators of Luciferase Translation or Activity in H4 […] Cells. [Related pubchem assays: 1829 (Project Summary), 1814 (Primary HTS)]; type: functional
[12] = Luminescence Cell-Based Dose Confirmation to Identify Activators of 5'UTR Stem-Loop Driven Alpha-Synuclein mRNA Translation in H4 Neuroglioblastoma Cells. [Related pubchem assays: 1829 (Project Summary), 1814 (Primary HTS)]; type: functional
[13] = Luminescence Cell-Based Dose Response to Identify Activators of Luciferase Translation or Activity in H4-C Neuroglioblastoma Cells. [Related pubchem assays: 1829 (Project Summary), 1814 (Primary HTS)]; type: functional

Cc1cc(C)c(-c2csc(NC(=O)/C=C/c3cccs3)n2)c(C)c1
EC50 [1]: 21.5 µM (active) | EC50 [2]: 9.05 µM (active) | CC50 (Vero [3]): > 25 µM (active) | EC50 [4]: > 120 µM (not active) | IC50 (Vero [5]): 23.2 µM (active)

C/C(=N\OC(=O)c1cccc(C(F)(F)F)c1)c1sc(-c2ccccc2)nc1C
CC50 [6]: 30.8 µM (active) | AC50 (HeLa): 174 µM (active)

CCOC(=O)c1ccc(NC(=O)CC2SCCNC2=O)cc1 (configuration not stated)
AC50 (A-375 [7]): > 35 µM (active) | AC50 (A-375 [8]): > 35 µM (active)

O=C(CSC(=S)N1CCCCC1)c1c(F)cccc1F
IC50 (HEK293): > 67.5 µM (inactive) | IC50 [9]: > 67.5 µM (inactive)

Cc1ccc(NC(=O)Nc2ccc3oc(C)nc3c2)cc1
EC50 [10]: 0.192 µM (active) | EC50 (H4): > 120 µM (not active) | EC50 [11]: < 0.1 µM (active) | EC50 [12]: 0.216 µM (active) | EC50 [13]: 0.346 µM (active) | AC50 (HeLa): 104 µM (active)

— ChEMBL document CHEMBL1201862, “PubChem BioAssay data set” (2004)
